Experimental data taken from PMC3271384 (Molecular Genetics and Metabolism, 2012).
Residue numbers refer to the chain shown, from its start.

Legend:
AGT-Ma = biological target: T1, AGT-Ma (Homo sapiens, UniProt P21549, D183N); experiment: CD signal at […] nm titration of apoenzyme; type: binding
T1 sequence (P21549 1-392 D183N): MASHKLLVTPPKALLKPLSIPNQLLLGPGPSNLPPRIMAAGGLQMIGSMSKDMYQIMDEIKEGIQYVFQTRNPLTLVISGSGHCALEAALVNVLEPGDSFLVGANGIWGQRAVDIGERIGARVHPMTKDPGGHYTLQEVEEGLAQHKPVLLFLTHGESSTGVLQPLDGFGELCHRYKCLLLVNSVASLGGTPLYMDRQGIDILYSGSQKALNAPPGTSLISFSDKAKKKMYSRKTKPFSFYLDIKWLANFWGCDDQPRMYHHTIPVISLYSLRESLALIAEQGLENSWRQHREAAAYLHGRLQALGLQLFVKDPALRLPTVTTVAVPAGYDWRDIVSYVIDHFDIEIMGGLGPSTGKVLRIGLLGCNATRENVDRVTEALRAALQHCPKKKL

AGT-Mi = biological target: T2, AGT-Mi (Homo sapiens, UniProt P21549, G161C/I340M/P11L); experiment: quenching of intrinsic fluorescence of apoenzyme; type: binding
T2 sequence (P21549 1-392 P11L/G161C/I340M): T1 sequence (P21549 1-392 D183N) with P11L, G161C, N183D, I340M

With `Cc1ncc(COP(=O)(O)O)c(C=O)c1O` [PLP] as the molecule, how does the Kd (AGT-Ma) read?
The Kd was 2.1 ± 0.1 µM.

What about the Kd (AGT-Mi) of the same molecule?
Its Kd is 0.56 ± 0.09 µM.
